pIC50, pKi: −log10 of the molar value. Read-outs that look alike come from different tables or passages of the source.
How the values were obtained:
mice = details: cited from earlier work
α-2 adrenoceptors = details: rat cerebral cortex; previously performed studies; cited from earlier work
ICR mice [1] = assay: Hole-board test; format: in vivo; details: 5 minute test
Procedure: ICR mice of either sex, weighing 14-17 g were used. Animals were housed in groups of four or five and were given food and water ad libitum and maintained on a 11 hour light: 13 hour dark cycle. All of the experimental groups had 12 animals per group.
dl-THP was dissolved in double distilled water and administered orally 1 hour before testing at concentrations as detailed below, with a total injection volume of 10 ml/kg. For the control group, double-distilled water was used as the vehicle.
All procedures were carried out in a quiet, air-conditioned laboratory between 08:00 and 13:00 at ambient temperature of 20-22° C. At the end of each session any boluses were removed and the box was thoroughly wiped with 70% ethanol.
The hole-board apparatus is a walled wood arena of 60×60×30 cm, with four equidistant 3 cm diameter holes spaced on the floor. The mice are placed on the center of the arena and the number of head-dips on the hole, the time spent head-dipping, the number of rearings and the time spent rearing are counted during a 5 minute test period (File SE et al., “The effects of triazolobenzodiazepines in two animal tests of anxiety and in the holeboard.”, Br J Pharmacol. November 1985;86(3):729-35; PMID: 2866006). After each trial, the floor of the apparatus was wiped and dried thoroughly with tissue to remove traces of the previous path.
The results from the locomotor activity test and the elevated plus-maze test are expressed as mean±standard error of mean (SEM). All data were submitted to analysis of variance (ANOVA). Post hoc comparisons between individual treatments and controls of the locomotor activity test, the hole-board test and the elevated plus-maze test were made using Dunnett's t-test. The level of significance was considered to be p<0.05.

α-1 adrenoceptors = details: rat cerebral cortex; previously performed studies; cited from earlier work
ICR mice [2] = assay: Horizontal-wire test; format: in vivo; details: up to 30 mg/kg orally
Procedure: ICR mice of either sex, weighing 14-17 g were used. Animals were housed in groups of four or five and were given food and water ad libitum and maintained on a 11 hour light: 13 hour dark cycle. All of the experimental groups had 12 animals per group. dl-THP was dissolved in double distilled water and administered orally 1 hour before testing at concentrations as detailed below, with a total injection volume of 10 ml/kg. For the control group, double-distilled water was used as the vehicle. The mice are lifted by the tail and allowed to grasp a horizontally strung wire (1 mm diameter, 15 cm long and placed 20 cm above the table) with their forepaws and released (Bonetti E P et al., Psychophannacology (Berl). 1982;78(1):8-18; PMID: 6292984).

ICR mice [3] = assay: Elevated plus-maze test; format: in vivo
Procedure: ICR mice of either sex, weighing 14-17 g were used. Animals were housed in groups of four or five and were given food and water ad libitum and maintained on a 11 hour light: 13 hour dark cycle. All of the experimental groups had 12 animals per group. dl-THP was dissolved in double distilled water and administered orally 1 hour before testing at concentrations as detailed below, with a total injection volume of 10 ml/kg. For the control group, double-distilled water was used as the vehicle. All procedures were carried out in a quiet, air-conditioned laboratory between 08:00 and 13:00 at ambient temperature of 20-22° C. At the end of each session any boluses were removed and the box was thoroughly wiped with 70% ethanol. The elevated plus-maze is made of wood as a horizontal cross consisting of two open arms (25×5 cm) and two opposite arms (25×5 cm) enclosed by 20 cm high walls. The arms extend from a central platform having dimensions of 5×5 cm. The plus-maze is elevated to a height of 40 cm from the floor. The maze is put inside a box with dimensions of 30×30×50 cm. After the hole-board test, the mice are immediately placed on the central platform of the maze facing a closed arm. The number of arm entries and the time spent into the open and closed arm are counted for 5 minutes (Pellow S et al., “Anxiolytic and anxiogenic drug effects on exploratory activity in an elevated plus-maze: a novel test of anxiety in the rat.”, Pharmacol Biochem Behav. March 1986;24(3):525-9; PMID: 2871560). Arm entry was defined as all four feet in the arm. The total number of arm entries provided a measure of general activity. […] The results from the locomotor activity test and the elevated plus-maze test are expressed as mean±standard error of mean (SEM). All data were submitted to analysis of variance (ANOVA). Post hoc comparisons between individual treatments and controls of the locomotor activity test, the hole-board test and the elevated plus-maze test were made using Dunnett's t-test. The level of significance was considered to be p<0.05.

rats = details: rat, in vivo, po; cited from earlier work
ICR mice [4] = assay: Locomotor activity test; format: in vivo; details: 1 hour before 5 minute test
Procedure: ICR mice of either sex, weighing 14-17 g were used. Animals were housed in groups of four or five and were given food and water ad libitum and maintained on a 11 hour light: 13 hour dark cycle. All of the experimental groups had 12 animals per group. dl-THP was dissolved in double distilled water and administered orally 1 hour before testing at concentrations as detailed below, with a total injection volume of 10 ml/kg. For the control group, double-distilled water was used as the vehicle. All procedures were carried out in a quiet, air-conditioned laboratory between 08:00 and 13:00 at ambient temperature of 20-22° C. At the end of each session any boluses were removed and the box was thoroughly wiped with 70% ethanol. The ZIL-2 apparatus (Beijing Institute of Materia Medica) having dimensions of 60×60×12 cm was used to perform this test. It consists of four circular plastic boxes of 25 cm diameter, each having 6 equally distributed infrared photocells. The locomotor activity was counted automatically during a 5 minute test period. A decrease in the number of transitions reflects a decrease in locomotor activity. The results from the locomotor activity test and the elevated plus-maze test are expressed as mean±standard error of mean (SEM). All data were submitted to analysis of variance (ANOVA). Post hoc comparisons between individual treatments and controls of the locomotor activity test, the hole-board test and the elevated plus-maze test were made using Dunnett's t-test. The level of significance was considered to be p<0.05.

[5] = biological target: BDZ binding site of the GABAA receptor; assay: competitive binding assay with [3H]-flunitrazepam; details: [3H]-flunitrazepam competition
[6] = 1, 10 and 30 mg/kg orally, dose-dependent, 5 minute test

COc1cc2c(cc1OC)C1Cc3ccc(OC)c(OC)c3CN1CC2 (racemic) [dl-THP, 5,8,18,13a-tetrahydro-2,3,9,10-tetramethoxy-6H-dibenzo [a,q] quinolizine]
LD50 (mice; mice, sub-cutaneous administration): 670 mg/kg | LD50 (mice; mouse, in vivo, po): 1160 mg/kg | pKi (α-2 adrenoceptors): 5.30 | number of head-dips (Dunnett's test) (ICR mice [1]; 10 mg/kg orally): significantly reduced | number of head-dips (ICR mice [1]; 30 mg/kg orally): significantly reduced | time spent head-dipping (ICR mice [1]; 30 mg/kg orally): significantly reduced | pKi (α-1 adrenoceptors): 5.33 | muscle-relaxant effect, grasping of horizontal wire (ICR mice [2]): without effect | open arm parameters versus controls (Dunnett's test) (ICR mice [3]; 1 mg/kg orally): significantly differed from controls | total number of arm entries (ICR mice [3]; 1, 10 and 30 mg/kg orally, 5 minute test): did not significantly alter | percentage of open arm entries (ICR mice [3]; [6]): significantly elevated | percentage of time spent on the open arms (ICR mice [3]; [6]): significantly elevated | LD50 (rats): 930 mg/kg | reduction of locomotor activity (ICR mice [4]; 1 mg/kg orally): 33% | reduction of locomotor activity (ICR mice [4]; 10 mg/kg orally): 33% | reduction of locomotor activity (ICR mice [4]; 30 mg/kg orally): 36% | pIC50 ([5]; read-out: IC50, inhibition of binding of [3H]-flunitrazepam to the BDZ binding site of the GABAA receptor): 3.08 | pKi ([5]; read-out: Ki, inhibition of binding of [3H]-flunitrazepam to the BDZ binding site of the GABAA receptor): 3.29
